Target: T1, hKv7.2/hKv7.3 (Homo sapiens, UniProt O43525+O43526)
T1 construct: P2A self-cleaving peptide (between Kv7.3 and Kv7.2; the remnant would stay on the upstream protein) (C); expressed in transfected cells
Assay: Thallium influx assay for potassium channel activation
Assay type: cell-based
Details: HEK-hKv7.2/hKv7.3 cells; FLIPR Potassium Assay kit; AUC readout normalized to a reference compound
Experimental: A synthesized cDNA fragment encoding human Kv7.3 and human Kv7.2 separated by a P2A sequence was inserted into the pcDNA5/FRT/TO vector using the BamHI and XhoI restriction sites. The construct was then transfected into HEK Flp-In 293 cells using Lipofectamine2000. The transfected cells were grown for 48 hours in DMEM containing 10% (v/v) FBS and 1% PenStrep and subsequently maintained under selection in DMEM containing 10% (v/v) FBS, 1% PenStrep and 200 ug/mL Hygromycin B at 37° C. in a humidified atmosphere of 5% CO2.
The thallium influx assay for potassium channel activation was performed analogously to a published procedure (C. D. Weaver, et al., J Biomol Screen 2004, 9, 671-677) using the FLIPR Potassium Assay kit (Molecular Devices). HEK-hKv7.2/hKv7.3 cells were plated onto 96-well, black-walled, clear-bottomed culture plates (Corning, Acton, Mass., USA) at a density of 80,000 cells/well (100 μl/well) if the cells were assayed the following day, or 40,000 cells/well (100 μl/well) if the cells were assayed two days after seeding.
On the assay day, the medium was removed after which 50 uL/well of test compound diluted to 2× final concentration in HBSS containing 20 mM HEPES, and 50 uL/well of 2× dye load buffer were added. The cells were then incubated for 60 min at room temperature in the dark. Chloride-free stimulation buffer containing Tl^+ and K^+ at 5× final concentration (5× concentration: 5 mM in both cases) and test compound at 1× final concentration, were prepared during the incubation. The cells were then assayed in a FDSS7000EX Functional Drug Screening System (Hamamatsu). Following 60 sec of baseline fluorescence signal reading at 0.1 Hz, and 10 sec at 1 Hz, 25 uL/well of stimulation buffer were added and the fluorescence continuously measured for 50 sec at 1 Hz followed, by 4 min at 0.1 Hz. Compound effect was quantified using AUC as readout and normalized to a reference compound, which was included on each plate.

Row | EC50 | SMILES
1 | 7.6 µM | CC(C)(C)C(O)CC(=O)N[C@@H](COC(F)F)c1cccc(OC(F)F)c1 (single isomer, unassigned) [Example 1a]
2 | 0.42 µM | CC(C)(C)C(O)CC(=O)N[C@@H](COC(F)F)c1cccc(OC(F)F)c1 (single isomer, unassigned) [Example 1b]
3 | 10 µM | CCOC[C@H](NC(=O)CC(O)C(C)(C)C)c1cccc(OC(F)(F)F)c1 (single isomer, unassigned) [Example 2a]
4 | 1.8 µM | CCOC[C@H](NC(=O)CC(O)C(C)(C)C)c1cccc(OC(F)(F)F)c1 (single isomer, unassigned) [Example 2b]
5 | 2.8 µM | O=C(CC(O)C1(C(F)(F)F)CC1)N[C@@H](COC(F)F)c1cccc(OC(F)F)c1 (single isomer, unassigned) [Example 3a]
6 | 2.4 µM | O=C(CC(O)C1(C(F)(F)F)CC1)N[C@@H](COC(F)F)c1cccc(OC(F)F)c1 (single isomer, unassigned) [Example 3b]
7 | 1.7 µM | O=C(CC(O)C1(C(F)(F)F)CC1)N[C@@H](COC(F)F)c1cccc(OC(F)(F)F)c1 (single isomer, unassigned) [Example 4a]
8 | 2.9 µM | O=C(CC(O)C1(C(F)(F)F)CC1)N[C@@H](COC(F)F)c1cccc(OC(F)(F)F)c1 (single isomer, unassigned) [Example 4b]
9 | 1.2 µM | O=C(CC(O)C1CC(F)(F)C1)N[C@@H](COC(F)F)c1cccc(OC(F)F)c1 (single isomer, unassigned) [Example 5a]
10 | 4.5 µM | O=C(CC(O)C1CC(F)(F)C1)N[C@@H](COC(F)F)c1cccc(OC(F)F)c1 (single isomer, unassigned) [Example 5b]
11 | 2.5 µM | O=C(CC(O)C1CC(F)(F)C1)N[C@@H](COC(F)F)c1cccc(OC(F)(F)F)c1 (single isomer, unassigned) [Example 6a]
12 | 1.1 µM | O=C(CC(O)C1CC(F)(F)C1)N[C@@H](COC(F)F)c1cccc(OC(F)(F)F)c1 (single isomer, unassigned) [Example 6b]
13 | 4 µM | CCC[C@H](NC(=O)CC(O)C1CC(F)(F)C1)c1cccc(OC(F)F)c1 (single isomer, unassigned) [Example 7a]
14 | 25 µM | CCC[C@H](NC(=O)CC(O)C1CC(F)(F)C1)c1cccc(OC(F)F)c1 (single isomer, unassigned) [Example 7b]
15 | 4.8 µM | CCC1(C(O)CC(=O)N[C@@H](COC(F)F)c2cccc(OC(F)F)c2)CC1 (single isomer, unassigned) [Example 8a]
16 | 1.2 µM | CCC1(C(O)CC(=O)N[C@@H](COC(F)F)c2cccc(OC(F)F)c2)CC1 (single isomer, unassigned) [Example 8b]
17 | 1.5 µM | CC(O)(CC(=O)N[C@@H](COC(F)F)c1cccc(OC(F)F)c1)C1(F)CC1 (single isomer, unassigned) [Example 9a]
18 | 9.2 µM | CC(O)(CC(=O)N[C@@H](COC(F)F)c1cccc(OC(F)F)c1)C1(F)CC1 (single isomer, unassigned) [Example 9b]
19 | 0.66 µM | CC(O)(CC(=O)N[C@@H](COC(F)F)c1cccc(OC(F)(F)F)c1)C1(F)CC1 (single isomer, unassigned) [Example 10a]
20 | 4.1 µM | CC(O)(CC(=O)N[C@@H](COC(F)F)c1cccc(OC(F)(F)F)c1)C1(F)CC1 (single isomer, unassigned) [Example 10b]
21 | 5.4 µM | CC(O)(CC(=O)N[C@@H](COC(F)F)c1cccc(OC(F)(F)F)c1)C1CC1 (single isomer, unassigned) [Example 11a]
22 | 1.7 µM | CC(O)(CC(=O)N[C@@H](COC(F)F)c1cccc(OC(F)(F)F)c1)C1CC1 (single isomer, unassigned) [Example 11b]
23 | 1.3 µM | CC(O)(CC(=O)N[C@@H](COC(F)F)c1cccc(OC(F)F)c1)CC(F)(F)F (single isomer, unassigned) [Example 12a]

Row | EC50 | SMILES
24 | 6.2 µM | CC(O)(CC(=O)N[C@@H](COC(F)F)c1cccc(OC(F)F)c1)CC(F)(F)F (single isomer, unassigned) [Example 12b]
25 | 0.96 µM | CC(C)CC(C)(O)CC(=O)N[C@@H](COC(F)F)c1cccc(OC(F)F)c1 (single isomer, unassigned) [Example 13a]
26 | 0.36 µM | CC(C)CC(C)(O)CC(=O)N[C@@H](COC(F)F)c1cccc(OC(F)F)c1 (single isomer, unassigned) [Example 13b]
27 | 5.2 µM | CC(C)C(C)(O)CC(=O)N[C@@H](COC(F)F)c1cccc(OC(F)F)c1 (single isomer, unassigned) [Example 14a]
28 | 1.3 µM | CC(C)C(C)(O)CC(=O)N[C@@H](COC(F)F)c1cccc(OC(F)F)c1 (single isomer, unassigned) [Example 14b]
29 | 3.7 µM | CC1(C)CC(C(O)CC(=O)N[C@@H](COC(F)F)c2cccc(OC(F)F)c2)C1 (single isomer, unassigned) [Example 15a]
30 | 0.65 µM | CC1(C)CC(C(O)CC(=O)N[C@@H](COC(F)F)c2cccc(OC(F)F)c2)C1 (single isomer, unassigned) [Example 15b]
31 | 2.6 µM | O=C(CC(O)C1CCCC1)N[C@@H](COC(F)F)c1cccc(OC(F)F)c1 (single isomer, unassigned) [Example 16a]
32 | 0.43 µM | O=C(CC(O)C1CCCC1)N[C@@H](COC(F)F)c1cccc(OC(F)F)c1 (single isomer, unassigned) [Example 16b]
33 | 2.7 µM | COC[C@H](NC(=O)C[C@](C)(O)C1(F)CC1)c1cccc(OC(F)(F)F)c1 (single isomer, unassigned) [Example 36a]
34 | 16 µM | COC[C@H](NC(=O)C[C@@](C)(O)C1(F)CC1)c1cccc(OC(F)(F)F)c1 (single isomer, unassigned) [Example 36b]
35 | 1.5 µM | CC(C)(C)[C@@H](O)CC(=O)N[C@@H](COC1CC1)c1cccc(OC(F)F)c1 [Example 17, (S)—N—((R)-2-cyclopropoxy-1-(3-(difluoromethoxy)phenyl)ethyl)-3-hydroxy-4,4-dimethylpentanamide]
36 | 0.95 µM | CC(C)(C)[C@@H](O)CC(=O)N[C@@H](COC(F)(F)F)c1cccc(OC(F)F)c1 [Example 18, (S)—N—((R)-1-(3-(difluoromethoxy)phenyl)-2-(trifluoromethoxy)ethyl)-3-hydroxy-4,4-dimethylpentanamide]
37 | 0.94 µM | CC(C)(C)[C@@H](O)CC(=O)N[C@@H](COC(F)(F)F)c1cccc(OC(F)(F)F)c1 [Example 19, (S)—N—((R)-1-(3-(trifluoromethoxy)phenyl)-2-(trifluoromethoxy)ethyl)-3-hydroxy-4,4-dimethylpentanamide]
38 | 1.5 µM | CCC[C@H](NC(=O)C[C@H](O)C(C)(C)C)c1cccc(OC(F)F)c1 [Example 20, (S)—N—((S)-1-(3-(difluoromethoxy)phenyl)butyl)-3-hydroxy-4,4-dimethylpentanamide]
39 | 1 µM | CC(C)(C)[C@@H](O)CC(=O)N[C@@H](CCC(F)F)c1cccc(OC(F)F)c1 [Example 21, (S)—N—((S)-1-(3-(difluoromethoxy)phenyl)-4,4-difluorobutyl)-3-hydroxy-4,4-dimethylpentanamide]
40 | 4.5 µM | CC(C)(C)[C@@H](O)CC(=O)N[C@@H](CC(F)F)c1cccc(OC(F)F)c1 [Example 22, (S)—N—((S)-1-(3-(difluoromethoxy)phenyl)-3,3-difluoropropyl)-3-hydroxy-4,4-dimethylpentanamide]
41 | 1.5 µM | C[C@H](NC(=O)C[C@H](O)C(C)(C)C)c1cccc(OC(F)F)c1 [Example 23, (S)—N—((S)-1-(3-(difluoromethoxy)phenyl)ethyl)-3-hydroxy-4,4-dimethylpentanamide]
42 | 2.4 µM | CC(C)(C)[C@@H](O)CC(=O)N[C@@H](CC#N)c1cccc(OC(F)(F)F)c1 [Example 24, (S)—N—((S)-2-cyano-1-(3-(trifluoromethoxy)phenyl)ethyl)-3-hydroxy-4,4-dimethylpentanamide]
43 | 1.9 µM | CC(C)(C)[C@@H](O)CC(=O)N[C@@H](CCC#N)c1cccc(OC(F)(F)F)c1 [Example 25, (S)—N—((S)-3-cyano-1-(3-(trifluoromethoxy)phenyl)propyl)-3-hydroxy-4,4-dimethylpentanamide]
44 | 0.96 µM | O=C(CC1(O)CC(F)(F)C1)N[C@@H](COC(F)F)c1cccc(OC(F)F)c1 [Example 26, (R)-2-(3,3-difluoro-1-hydroxycyclobutyl)-N-(2-(difluoromethoxy)-1-(3-(difluoromethoxy)phenyl)ethyl)acetamide]
45 | 2.3 µM | O=C(CC1(O)CC(F)(F)C1)N[C@@H](COC(F)F)c1cccc(OC(F)(F)F)c1 [Example 27, (R)-2-(3,3-difluoro-1-hydroxycyclobutyl)-N-(2-(difluoromethoxy)-1-(3-(trifluoromethoxy)phenyl)ethyl)acetamide]

Reference: patent US11548849B2, “Alcohol derivatives as KV7 potassium channel openers” (H. Lundbeck A/S, priority 2019, dated 2023)
